Series [1] has as its system IL-17 production of mouse spleen cells stimulated by rm-IL-23. Nature of the series: Production of IL-17 induced when mouse spleen cells were stimulated by recombinant mouse interleukin-23 (rm-IL-23). To be noted: Mus musculus, 72 h, inhibition of IL-17 production, DBA/1J mouse spleen cells, rm-IL-23 1 nmol/L, ELISA. The format is cell-based. The method, then:
Effect on Production of IL-17 Induced when Mouse Spleen Cells were Stimulated by Recombinant Mouse Interleukin-23 (rm-IL-23)
An RPMI1640 (Sigma-Aldrich) was used as a medium, to which penicillin G potassium (50 units/mL; Gibco), streptomycin (50 μg/mL; Gibco) and 2-mercaptoethanol (50 μmol/l; Sigma-Aldrich) were added, and then 10% of fetal calf serum (FCS; Cell Culture Technology) inactivated at 56° C. for 30 minutes was added and used in the Test. The test compound was dissolved in dimethylsulfoxide and diluted with 10% FCS-containing RPMI1640 medium to a desired concentration and used in the test. The spleens were aseptically taken out from 6-7 week-old male DBA/1J mice (Charles River Japan, Inc.) and a single cell suspension of spleen cells was prepared and hemolyzed by hypotonic treatment with a mixture of 0.83% aqueous solution of ammonium chloride and Tris-HCl buffer of pH 7.65 (9:1). A cell suspension prepared by 10% FCS-containing RPMI1640 medium was added to flat-bottomed 96 well microtestplate at 2×10^5 cells/well. Test compounds and rm-IL-23 (R&D systems) were diluted with a medium to 1 to 1,000 nmol/L, and 1 nmol/L of the final concentration respectively, which were added and cultured at 37° C., 5% carbon dioxide and 95% air for 72 hours. After completion of the culture, culture supernatant was sampled and an amount of IL-17 production was determined by ELISA method. After sampling the supernatant, WST-8 (Seikagaku Corporation) was added at 10 μl/well and cultured at 37° C., 5% carbon dioxide and 95% air for 4 hours. Then, absorbance (O.D.: Optical Density) at 450 nm was measured by a microplate reader and the value was adopted as an index of cell survivability. An inhibition rate (%) was calculated according to the following formula on the basis of an average of an amount of IL-17 production and a O.D. values of the well containing a test compound of each concentration.
Based on the dose-response curve obtained by plotting the inhibition rate in the longitudinal axis and concentration in the horizontal axis, the concentration of the compound which inhibits the level to 50% of the value of the control group (IC50; nmol/L) was determined by linear regression analysis. The results was shown in the next Table 1
In general terms: In an ELISA, binding on a coated surface is turned into a signal by an enzyme label.

In series [2] the target is hERG (Homo sapiens, UniProt Q12809). Nature of the series: Effects on hERG current (whole-cell clamping). To be noted: human, HEK 293 cells that express hERG, pH 7.4, hERG inhibition rate (%) (1 μM), 1 μM; tail peak current; hERG-expressed HEK 293 cells. A general note: Block of hERG is tested as a sign of cardiac risk.

Molecules are shown by their SMILES. Where a name gives a salt, the structure may show the parent alone.

What is called IC50 is the point on the concentration scale where inhibition reaches its midpoint. The inhibition is the relative decrease from the control value, in per cent. Low readings indicate a response near the control, high ones a response far below the control.

Chain of hERG (Q12809 whole entry): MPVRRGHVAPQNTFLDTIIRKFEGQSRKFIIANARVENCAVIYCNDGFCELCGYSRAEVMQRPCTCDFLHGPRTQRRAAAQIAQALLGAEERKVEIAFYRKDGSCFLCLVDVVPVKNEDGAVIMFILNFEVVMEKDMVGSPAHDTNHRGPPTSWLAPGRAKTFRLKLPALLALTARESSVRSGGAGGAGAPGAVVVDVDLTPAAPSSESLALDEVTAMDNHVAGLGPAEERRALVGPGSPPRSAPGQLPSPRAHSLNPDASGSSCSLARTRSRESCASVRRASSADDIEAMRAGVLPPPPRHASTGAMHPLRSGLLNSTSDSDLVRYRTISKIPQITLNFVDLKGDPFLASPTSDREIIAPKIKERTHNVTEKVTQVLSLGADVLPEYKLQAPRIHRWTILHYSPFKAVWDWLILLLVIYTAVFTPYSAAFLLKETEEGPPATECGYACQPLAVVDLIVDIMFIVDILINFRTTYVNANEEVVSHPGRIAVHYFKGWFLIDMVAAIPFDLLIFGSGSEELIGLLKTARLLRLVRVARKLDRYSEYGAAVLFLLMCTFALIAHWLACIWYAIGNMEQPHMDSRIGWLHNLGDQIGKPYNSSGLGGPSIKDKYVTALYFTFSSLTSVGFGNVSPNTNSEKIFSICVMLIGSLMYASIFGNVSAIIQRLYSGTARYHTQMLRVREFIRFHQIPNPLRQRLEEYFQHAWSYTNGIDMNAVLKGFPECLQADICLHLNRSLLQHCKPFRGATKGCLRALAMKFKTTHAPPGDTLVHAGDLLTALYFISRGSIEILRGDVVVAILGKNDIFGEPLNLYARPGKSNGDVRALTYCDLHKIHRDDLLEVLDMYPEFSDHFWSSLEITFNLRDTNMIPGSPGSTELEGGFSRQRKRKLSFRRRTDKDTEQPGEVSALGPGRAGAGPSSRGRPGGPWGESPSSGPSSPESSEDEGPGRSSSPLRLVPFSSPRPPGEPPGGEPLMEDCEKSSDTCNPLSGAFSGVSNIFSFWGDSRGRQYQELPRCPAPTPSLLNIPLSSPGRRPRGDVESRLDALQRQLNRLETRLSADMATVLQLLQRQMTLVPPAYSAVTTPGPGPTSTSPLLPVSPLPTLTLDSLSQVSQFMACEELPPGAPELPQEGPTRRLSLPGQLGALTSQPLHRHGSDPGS

Take `Cc1c(C(=O)Nc2ccc([C@]3(C#N)CC[C@]4(CCCO4)CC3)nc2)cnn1-c1ccc(C(F)(F)F)cn1` [Example D278, N-[6-(c-8-Cyano-r-1-oxaspiro[4.5]decan-8-yl)pyridin-3-yl]-5-methyl-1-[5-(trifluoromethyl)-pyridin-2-yl]-1H-pyrazole-4-carboxamide]: in series [1], the half-maximal inhibitory concentration (IC50) stood at 50.2 nM. This compound returned an inhibition at 1 µM in series [2] of 13.6%.
As for `Cc1cc(NC(=O)c2cnn(-c3ccc(C(F)(F)F)cn3)c2C)cnc1C1=CCC(N(C)CCC(C)(C)C)CC1` (centres unmarked) [Example K30, N-(6-[4-[N-(3,3-Dimethylbutyl)-N-methylamino]cyclohex-1-en-1-yl]-5-methylpyridin-3-yl)-5-methyl-1-[5-(trifluoromethyl)pyridin-2-yl]-1H-pyrazole-4-carboxamide], in series [1], the IC50 was 368 nM. This compound returned an inhibition at 1 µM in series [2] of 79.6%.
Consider `COc1cc(C(F)(F)F)cnc1-n1ncc(C(=O)Nc2cnc(C3CCC4(CC3)OCCO4)c(C)c2)c1C` [Example D197], for which the IC50 in series [1] amounted to 123 nM. Also, the inhibition at 1 µM in series [2] turned out to be 0.8%.
With `Cc1nc(-n2ncc(C(=O)Nc3ccc([C@]4(C#N)CC[C@@H](N5CCOCC5)CC4)nc3)c2C)ccc1C(F)(F)F` [Example D299], the IC50 in series [1] came out at 112 nM. The same compound displayed an inhibition at 1 µM in series [2] of 40.6%.
As to `Cc1c(C(=O)Nc2cnc(C3=CCC(N4CCOCC4)CC3)c(F)c2)cnn1-c1ccc(C(F)(F)F)cn1` (centres unmarked) [Example D282], the IC50 in series [1] came out at 174 nM. Also, the inhibition at 1 µM in series [2] worked out at 11.9%.
Take `Cc1c(C(=O)Nc2ccc([C@]3(C#N)CC[C@@H](O)CC3)nc2)cnn1-c1ncc(C(F)(F)F)cc1F` [Example J16]: in series [1], the IC50 turned out to be 305 nM. In series [2], this compound showed an inhibition at 1 µM of 13.5%.
For `Cc1c(C(=O)Nc2ccc(C3(C#N)CCC4(CC3)OCCO4)nc2)cnn1-c1ccc(C(F)(F)F)cn1` [Example D41], in that order: 32.8 nM and 26.4%.
With `Cc1c(C(=O)Nc2ccc([C@]3(C#N)CC[C@@H](N4CCOCC4)CC3)nc2)cnn1-c1ccc(C(C)C)cn1` [Example D26, N-{6-[r-1-Cyano-c-4-(morpholin-4-yl)cyclohexyl]pyridin-3-yl}-1-(5-isopropylpyridin-2-yl)-5-methyl-1H-pyrazole-4-carboxamide mesylate], the IC50 in series [1] is 125 nM. Further, the inhibition at 1 µM in series [2] was 26.4%.
For the compound `Cc1c(C(=O)Nc2ccc(C3=CCC(N4CCOCC4)CC3)nc2)cnn1-c1ccc(C(F)(F)F)cc1` (centres unmarked) [Example D71], in series [1], the IC50 came to 62.5 nM. In series [2], this compound registered an inhibition at 1 µM of 16.5%.
Regarding `Cc1c(C(=O)Nc2ccc(C3CCC(=O)CC3)nc2)cnn1-c1ccc(C(C)(C)C)cc1` [Example F26], the IC50 in series [1] stood at 321 nM. In series [2], this compound registered an inhibition at 1 µM of 8.1%.
For `Cc1c(C(=O)Nc2ccc([C@]3(C#N)CC[C@@H](O)CC3)nc2)cnn1-c1ncc(C(F)(F)F)cc1Cl` [Example J15], in that order: 438 nM and 8.2%.
As to `CC(C)c1c(C(=O)Nc2ccc([C@]3(C#N)CC[C@@H](N4CCOCC4)CC3)nc2)cnn1-c1ccc(C(F)(F)F)cn1` [Example D300, N-{6-[r-1-Cyano-c-4-(morpholin-4-yl)cyclohexyl]pyridin-3-yl}-5-isopropyl-1-[5-(trifluoromethyl)pyridin-2-yl]-1H-pyrazole-4-carboxamide], the IC50 in series [1] worked out at 182 nM. Further, in series [2], the inhibition at 1 µM was 26.1%.
As to `Cc1cc(NC(=O)c2cnn(-c3ccc(C(F)(F)F)cn3)c2C)cnc1C1=CCC(O)CC1` (centres unmarked) [Example D23, N-[6-(4-Hydroxycyclohex-1-en-1-yl)-5-methylpyridin-3-yl]-5-methyl-1-[5-(trifluoromethyl)-pyridin-2-yl]-1H-pyrazole-4-carboxamide], in series [1], the IC50 is 105 nM. In series [2], the inhibition at 1 µM was found to be 20.2%.
For the compound `Cc1ccc(-n2ncc(C(=O)Nc3cnc(C4=CCC(N(C)C(=O)C(C)(C)C)CC4)c(C)c3)c2C)nc1` (centres unmarked) [Example D264], the IC50 in series [1] worked out at 17.4 nM. 1 µM produced 7.5% inhibition in series [2].
On to `Cc1c(C(=O)Nc2ccc(C3=CCC(N4CCOCC4)CC3)nc2)cnn1-c1ccc(C2CC2)cn1` (centres unmarked) [Example D5, 1-(5-Cyclopropylpyridin-2-yl)-5-methyl-N-{6-[4-(morpholin-4-yl)cyclohex-1-en-1-yl]pyridin-3-yl}-1H-pyrazole-4-carboxamide mesylate], for which, in series [1], the IC50 was determined as 119 nM. This compound had an inhibition at 1 µM in series [2] of 15.1%.
On to `Cc1c(C(=O)Nc2ccc([C@H]3CC[C@H](N4CCOCC4)CC3)nc2)cnn1-c1ncc(C2CC2)cc1F` [Example D65], for which the IC50 in series [1] turned out to be 139 nM. This compound also came in with an inhibition at 1 µM in series [2] of 5.5%.
For `Cc1c(C(=O)Nc2ccc([C@]3(C#N)CC[C@@H](N(C)C(=O)C(C)C)CC3)nc2)cnn1-c1ccc(C(F)(F)F)cn1` [Example D289, N-{6-[r-1-Cyano-c-4-(N-isobutyryl-N-methylamino)cyclohexan-1-yl]pyridin-3-yl}-5-methyl-1-[5-(trifluoromethyl)pyridin-2-yl]-1H-pyrazole-4-carboxamide], in that order: 87.2 nM and 11.6%.
For the compound `Cc1cc(NC(=O)c2cnn(-c3ncc(C(F)(F)F)cc3F)c2C)cnc1C1CCC2(CC1)OCCO2` [Example D196, N-[6-(1,4-Dioxaspiro[4.5]dec-8-yl)-5-methylpyridin-3-yl]-1-[3-fluoro-5-(trifluoromethyl)pyridin-2-yl]-5-methyl-1H-pyrazole-4-carboxamide], in series [1], the IC50 was 54.6 nM. In series [2], 1 µM produced 13.6% inhibition.
For `Cc1cc(NC(=O)c2cnn(-c3ncc(C(F)(F)F)cc3F)c2C)cnc1[C@H]1CC[C@H](O)CC1` [Example G29, trans-1-[3-Fluoro-5-(trifluoromethyl)pyridin-2-yl]-N-[6-(1-hydroxycyclohexan-4-yl)-5-methylpyridin-3-yl]-5-methyl-1H-pyrazole-4-carboxamide], in that order: 133 nM and 6.7%.
On to `Cc1c(C(=O)Nc2ccc([C@]3(C#N)CC[C@@H](O)CC3)nc2)cnn1-c1ccc(Cl)c(Cl)c1` [Example G8], for which the IC50 in series [1] stood at 56.4 nM. The compound also returned an inhibition at 1 µM in series [2] of 1.9%.
For `Cc1cc(NC(=O)c2cnn(-c3ccc(C(F)(F)F)cn3)c2C)cnc1C1=CCN(S(=O)(=O)C(C)C)CC1` [Example K45, 5-Methyl-N-{5-methyl-6-[1-(propane-2-sulfonyl)-1,2,3,6-tetrahydropyridin-4-yl]pyridin-3-yl}-1-[5-(trifluoromethyl)pyridin-2-yl]-1H-pyrazole-4-carboxamide], in that order: 46.2 nM and 21.1%.
For `Cc1c(C(=O)Nc2ccc(C3(C#N)CCC(O)CC3)nc2)cnn1-c1ccc(C(F)(F)F)cn1` (centres unmarked) [Example K6, N-[6-(r-1-Cyano-c-4-hydroxycyclohexyl)pyridin-3-yl]-5-methyl-1-[5-(trifluoromethyl)pyridin-2-yl]-1H-pyrazole-4-carboxamide], in that order: 148 nM and 40%.
With `CNC1CC=C(c2ncc(NC(=O)c3cnn(-c4ccc(C(F)(F)F)cn4)c3C)cc2C)CC1` (centres unmarked) [Example K26, 5-Methyl-N-[5-methyl-6-(4-methylaminocyclohex-1-en-1-yl)pyridin-3-yl]-1-[5-(trifluoromethyl)pyridin-2-yl]-1H-pyrazole-4-carboxamide], the IC50 in series [1] stood at 376 nM. This compound also had an inhibition at 1 µM in series [2] of 14.3%.
On to `Cc1c(C(=O)Nc2ccc([C@H]3CC[C@H](N4CCOCC4)CC3)nc2)cnn1-c1ccc(C(F)F)cn1` [Example D63], for which, in series [1], the IC50 was found to be 207 nM. The inhibition at 1 µM in series [2] was determined as 40.4%.
For `CC[C@]1(O)CC[C@](C#N)(c2ccc(NC(=O)c3cnn(-c4ccc(C(F)(F)F)cn4)c3C)cn2)CC1` [Example D276], in that order: 71.2 nM and 8.9%.
For `Cc1cc(NC(=O)c2cnn(-c3ccc(C(F)(F)F)cc3)c2C)cnc1C1=CCC(O)CC1` (centres unmarked) [Example G5, N-[6-(4-Hydroxycyclohex-1-en-1-yl)-5-methylpyridin-3-yl]-5-methyl-1-[4-(trifluoromethyl)-phenyl]-1H-pyrazole-4-carboxamide], in that order: 86.6 nM and 11.7%.
Compound `COc1cc(NC(=O)c2cnn(-c3ccc(C(F)(F)F)cn3)c2C)cnc1C1=CCC(N(C)C(=O)C(C)(C)C)CC1` (centres unmarked) [Example K69, N-(6-{4-[N-(2,2-Dimethylpropion-1-yl)-N-methylamino]cyclohex-1-en-1-yl}-5-methoxypyridin-3-yl)-5-methyl-1-[5-(trifluoromethyl)pyridin-2-yl]-1H-pyrazole-4-carboxamide] came in with an inhibition at 1 µM in series [2] of 1.3%.

Values taken from patent US9150555B2, “Amide derivative and use thereof” (Mitsubishi Tanabe Pharma Corporation, priority 2010, dated 2015).
